Experimental data taken from patent EP0315197B1 (GÖDECKE AKTIENGESELLSCHAFT, priority 1987, dated 1989).
Where a name gives a salt, the structure may show the parent alone. Read-outs that look alike come from different tables or passages of the source.

What was measured:
[1] = system: Hypertonie; details: for Senkung der Herzfrequenz / Senkung des systolischen Blutdrucks im Sitzen: 3 weeks; for Abnahme des diastolischen Blutdrucks: after 3 weeks vs end of placebo phase, depending on time of measurement; for Response-Rate zum Zeitpunkt 8 Uhr: pre-dose; for globale Response-Rate (Anteil der Patienten mit Response zu allen drei Meßzeitpunkten): response = diastolic decrease of at least 10 mmHg or below 90 mmHg; for DBD sitzend / DBD stehend / HR sitzend / SBD sitzend / SBD stehend / HR stehend: mean (SD)
Source text: Die Patienten befanden sich stationär in Reha-Kliniken.
Nach Absetzen einer eventuellen antihypertensiven Vorbehandlung erhielten die Patienten zunächst 1 Woche Placebo.
Zur Beurteilung der Wirksamkeit wurde der diastolische Blutdruck im Sitzen zu 3 verschiedenen Tageszeiten (8, 11 und 17 Uhr) herangezogen. "Response" war definiert als eine Senkung des diastolischen Blutdrucks um mindestens 10 mmHg oder unter einen Wert von 90 mmHg.

[2] = Kölle 1983; cited from earlier work
[3] = system: Hypertonie; details: for Response-Rate / Senkung des mittleren systolischen Blutdrucks im Sitzen: 8 weeks; for Senkung des diastolischen Blutdrucks im Sitzen: after 8 weeks vs placebo phase, morning pre-dose, mean; for DBD sitzend / DBD stehend / HR sitzend / HR stehend / SBD sitzend / SBD stehend: mean (SD)
Procedure: In diese multizentrische randomisierte Doppelblind-Parallel-Studie wurden wiederum Hypertoniker der WHO-Klasse I-III eingeschlossen, deren diastolischer Blutdruck am Ende der Placebophase höher als 95 mmHg war. Einer 2-wöchigen Placebophase folgte eine Behandlungsphase von 8 Wochen. Das Therapieschema von 1 x tgl. 180 mg bzw. 2 x tgl. 90 mg glich dem der vorangegangenen Studie. Zur Beurteilung der Wirksamkeit wurde die Senkung des diastolischen Blutdrucks bei der Messung am Morgen herangezogen, die jeweils nach 8 Wochen Behandlung erzielt worden war. Die Blutdruckmessung erfolgte wiederum vor der Medikation, um Aufschluß über die 24-h-Wirkung bei der einmal täglichen Behandlung zu erhalten.

[4] = 5 p.m., 1 × 180 mg (n = 40), Basislinie (end of placebo phase)
[5] = 5 p.m., 1 × 180 mg (n = 40), Endpunkt (3 weeks)
[6] = 5 p.m., 2 × 90 mg (n = 42), Basislinie (end of placebo phase)
[7] = 5 p.m., 2 × 90 mg (n = 42), Endpunkt (3 weeks)
[8] = 8 a.m., 1 × 180 mg (n = 40), Basislinie (end of placebo phase)
[9] = 8 a.m., 1 × 180 mg (n = 40), Endpunkt (3 weeks)
[10] = 8 a.m., 2 × 90 mg (n = 42), Basislinie (end of placebo phase)
[11] = 8 a.m., 2 × 90 mg (n = 42), Endpunkt (3 weeks)
[12] = 11 a.m., 1 × 180 mg (n = 40), Basislinie (end of placebo phase)
[13] = 11 a.m., 1 × 180 mg (n = 40), Endpunkt (3 weeks)
[14] = 11 a.m., 2 × 90 mg (n = 42), Basislinie (end of placebo phase)
[15] = 11 a.m., 2 × 90 mg (n = 42), Endpunkt (3 weeks)
[16] = 1 × 180 mg (n = 30), Basislinie (end of placebo phase)
[17] = 1 × 180 mg (n = 30), Endpunkt (8 weeks)
[18] = 2 × 90 mg (n = 30), Basislinie (end of placebo phase)
[19] = 2 × 90 mg (n = 30), Endpunkt (8 weeks)

SMILES: COc1ccc([C@@H]2Sc3ccccc3N(CCN(C)C)C(=O)[C@@H]2OC(C)=O)cc1 [Diltiazem, Diltiazemhydrochlorid]
- Senkung der Herzfrequenz ([1]; 1 x 180 mg group): 4-8 Schläge pro Minute
- Senkung des systolischen Blutdrucks im Sitzen ([1]; 1 x 180 mg group): 19-22 mmHg
- Abnahme des diastolischen Blutdrucks ([1]; 1 x 180 mg group): 13-16 mmHg
- Response-Rate zum Zeitpunkt 8 Uhr ([1]; 1 x 180 mg group): 87,5%
- globale Response-Rate (Anteil der Patienten mit Response zu allen drei Meßzeitpunkten) ([1]; 1 x 180 mg group): 85%
- Senkung der Herzfrequenz ([1]; 2 x 90 mg group): 4-8 Schläge pro Minute
- Senkung des systolischen Blutdrucks im Sitzen ([1]; 2 x 90 mg group): 15-18 mmHg
- Abnahme des diastolischen Blutdrucks ([1]; 2 x 90 mg group): 13-16 mmHg
- Response-Rate zum Zeitpunkt 8 Uhr ([1]; 2 x 90 mg group): 81%
- globale Response-Rate (Anteil der Patienten mit Response zu allen drei Meßzeitpunkten) ([1]; 2 x 90 mg group): 62%
- DBD sitzend [1, 4]: 99.2 (3.9) mmHg
- DBD stehend [1, 4]: 101.0 (4.8) mmHg
- HR sitzend [1, 4]: 76.5 (9.2) 1/min
- SBD sitzend [1, 4]: 158.9 (16.1) mmHg
- SBD stehend [1, 4]: 158.4 (16.3) mmHg
- DBD sitzend [1, 5]: 85.2 (8.8) mmHg
- DBD stehend [1, 5]: 88.8 (8.9) mmHg
- HR sitzend [1, 5]: 70.0 (7.2) 1/min
- HR stehend [1, 5]: 78.6 (7.7) 1/min
- SBD sitzend [1, 5]: 140.2 (14.2) mmHg
- SBD stehend [1, 5]: 138.5 (14.8) mmHg
- DBD sitzend [1, 6]: 99.9 (5.9) mmHg
- DBD stehend [1, 6]: 102.5 (5.8) mmHg
- HR sitzend [1, 6]: 77.0 (8.4) 1/min
- SBD stehend [1, 6]: 156.7 (15.0) mmHg
- DBD sitzend [1, 7]: 87.0 (10.7) mmHg
- DBD stehend [1, 7]: 87.7 (9.2) mmHg
- HR sitzend [1, 7]: 72.1 (8.1) 1/min
- HR stehend [1, 7]: 79.6 (9.1) 1/min
- SBD stehend [1, 7]: 138.6 (15.1) mmHg
- DBD sitzend [1, 8]: 98.3 (3.9) mmHg
- DBD stehend [1, 8]: 100.1 (7.1) mmHg
- HR sitzend [1, 8]: 76.8 (9.4) 1/min
- HR stehend [1, 8]: 87.2 (11.0) 1/min
- SBD sitzend [1, 8]: 161.3 (16.2) mmHg
- SBD stehend [1, 8]: 158.6 (16.4) mmHg
- DBD sitzend [1, 9]: 85.3 (8.3) mmHg
- DBD stehend [1, 9]: 87.3 (9.8) mmHg
- HR sitzend [1, 9]: 73.7 (7.1) 1/min
- HR stehend [1, 9]: 80.6 (7.4) 1/min
- SBD stehend [1, 9]: 141.0 (14.8) mmHg
- DBD sitzend [1, 10]: 99.8 (5.2) mmHg
- DBD stehend [1, 10]: 102.0 (5.8) mmHg
- HR sitzend [1, 10]: 76.4 (9.6) 1/min
- SBD stehend [1, 10]: 155.5 (17.9) mmHg
- DBD sitzend [1, 11]: 83.9 (10.7) mmHg
- DBD stehend [1, 11]: 88.5 (9.7) mmHg
- HR sitzend [1, 11]: 72.1 (8.2) 1/min
- HR stehend [1, 11]: 79.0 (8.0) 1/min
- SBD stehend [1, 11]: 137.4 (16.1) mmHg
- DBD sitzend [1, 12]: 98.5 (3.9) mmHg
- DBD stehend [1, 12]: 100.5 (5.8) mmHg
- HR sitzend [1, 12]: 75.1 (9.2) 1/min
- HR stehend [1, 12]: 84.4 (9.5) 1/min
- SBD sitzend [1, 12]: 159.2 (18.2) mmHg
- SBD stehend [1, 12]: 157.9 (19.6) mmHg
- DBD sitzend [1, 13]: 83.3 (8.2) mmHg
- DBD stehend [1, 13]: 87.1 (8.3) mmHg
- HR sitzend [1, 13]: 71.1 (7.0) 1/min
- HR stehend [1, 13]: 78.8 (6.9) 1/min
- SBD sitzend [1, 13]: 137.6 (12.2) mmHg
- SBD stehend [1, 13]: 137.1 (14.2) mmHg
- DBD sitzend [1, 14]: 100.2 (5.4) mmHg
- DBD stehend [1, 14]: 102.9 (5.6) mmHg
- HR sitzend [1, 14]: 76.0 (9.1) 1/min
- HR stehend [1, 14]: 83.6 (10.4) 1/min
- SBD sitzend [1, 14]: 158.1 (16.5) mmHg
- SBD stehend [1, 14]: 155.8 (17.7) mmHg
- DBD sitzend [1, 15]: 85.4 (9.5) mmHg
- DBD stehend [1, 15]: 87.3 (10.6) mmHg
- HR sitzend [1, 15]: 71.3 (7.8) 1/min
- HR stehend [1, 15]: 78.6 (8.6) 1/min
- SBD sitzend [1, 15]: 140.1 (15.8) mmHg
- SBD stehend [1, 15]: 135.7 (15.5) mmHg
- Halbwertzeit für die Elimination, α-Phase [2]: 0,1 h
- Halbwertzeit für die Elimination, β-Phase [2]: 2,1 h
- Halbwertzeit für die Elimination, γ-Phase [2]: 9,8 h
- Response-Rate ([3]; 1 x 180 mg group): 80%
- Senkung des diastolischen Blutdrucks im Sitzen ([3]; 1 x 180 mg group): 13 mmHg
- Senkung des mittleren systolischen Blutdrucks im Sitzen ([3]; 1 x 180 mg): 16 mmHg
- DBD sitzend [3, 16]: 100.7 (3.0) mmHg
- DBD stehend [3, 16]: 98.7 (3.2) mmHg
- HR sitzend [3, 16]: 72.5 (4.9) 1/min
- HR stehend [3, 16]: 74.9 (6.3) 1/min
- SBD sitzend [3, 16]: 175.1 (16.6) mmHg
- SBD stehend [3, 16]: 169.7 (19.8) mmHg
- DBD sitzend [3, 17]: 87.8 (9.1) mmHg
- DBD stehend [3, 17]: 84.8 (9.2) mmHg
- HR sitzend [3, 17]: 68.7 (4.4) 1/min
- HR stehend [3, 17]: 71.3 (5.2) 1/min
- SBD sitzend [3, 17]: 159.0 (18.8) mmHg
- SBD stehend [3, 17]: 150.5 (26.6) mmHg
- Response-Rate ([3]; 2 x 90 mg group): 70%
- Senkung des diastolischen Blutdrucks im Sitzen ([3]; 2 x 90 mg group): 12 mmHg
- Senkung des mittleren systolischen Blutdrucks im Sitzen ([3]; 2 x 90 mg): 10 mmHg
- DBD sitzend [3, 18]: 99.1 (3.2) mmHg
- DBD stehend [3, 18]: 99.0 (3.1) mmHg
- HR sitzend [3, 18]: 73.5 (6.5) 1/min
- HR stehend [3, 18]: 75.9 (7.5) 1/min
- SBD sitzend [3, 18]: 169.4 (19.7) mmHg
- SBD stehend [3, 18]: 168.5 (22.1) mmHg
- DBD sitzend [3, 19]: 88.4 (8.0) mmHg
- DBD stehend [3, 19]: 86.9 (8.6) mmHg
- HR sitzend [3, 19]: 69.8 (6.0) 1/min
- HR stehend [3, 19]: 72.5 (7.0) 1/min
- SBD sitzend [3, 19]: 159.2 (23.7) mmHg
- SBD stehend [3, 19]: 156.7 (28.4) mmHg
